Assay results published in BindingDB's records for doi:10.1007/s00044-007-9052-5 (Central Drug Research Institute, 2008).

Biological target: DNA ligase A (Mycobacterium tuberculosis (strain ATCC 25618 / H37Rv), UniProt P9WNV1)
Assay: Enzyme Assay
Description: All assays have been carried out using procedures previously described by our group (Srivastava et al., 2005a; 2005b; 2007)

## CC1(C)O[C@H]2OC(C(CCO)NCCCN[C@@H](CCO)C3O[C@@H]4OC(C)(C)O[C@@H]4[C@H]3OCc3ccccc3)[C@H](OCc3ccccc3)[C@H]2O1 (stereo partly specified) [Glycosylamine, 4]
  IC50: 46.2 µM
